Assay results as given in US20050244359A1, “Topical regulation of triglyceride metabolism” (priority 2004, published 2005).
“And” between values parts separate entries of the source, which are not always exact repeats. Equal values may be shown once.

System: epidermal equivalents
Experiment: Triglyceride production in living skin samples (epidermal equivalents, MatTek), HPTLC analysis
Assay type: cell-based
Conditions: for net intensity (HPTLC, triglycerides): about 0.1 percent fatty acid, epidermal equivalents cultured for three days, triglycerides extracted in chloroform/methanol (2:1)
Description: A set of living skin samples, epidermal equivalents, obtained from MatTek, is tested with a sample of about 0.1 percent palmitoleic acid and about 0.1 percent oleic acid. A media is prepared of a transwell membrane at the air/liquid interface and is cultured for three days. At the end of the incubation period, each skin square is homogenized and its triglycerides extracted in chloroform/methanol (2:1). This is followed by HPTLC analysis. […] After one day of application it is surprising to find the increase in triglyceride concentration in the epidermal equivalents treated with palmitoleic acid. […] The net intensity of oleic acid is 859. In contrast, palmitoleic acid has a net intensity of 1324 and 1212, an average of 1268 net intensity.

| Compound | net intensity (HPTLC, triglycerides) | effect on triglyceride production (in words) (epidermal equivalents, HPTLC) | average net intensity (HPTLC, triglycerides) (about 0.1 percent, average of two values) | increase in triglyceride production (about 0.1 percent, epidermal equivalents, HPTLC) |
| --- | --- | --- | --- | --- |
| CCCCCCCC/C=C\CCCCCCCC(=O)O [oleic acid, reference compound] | 859 | little effect |  |  |
| CCCCCC/C=C\CCCCCCCC(=O)O [palmitoleic acid] | 1324 and 1212 | time and dose-dependent increase in triglyceride production | 1268 | ~400% |
